In publication PMC4153677, “Probing the Activity Modification Space of the Cysteine Peptidase Cathepsin K with Novel Allosteric Modifiers” (PLoS ONE, 2014):

Assays:
Assay type in all cases: biochemical
[1] = biological target: T1, Recombinant human cathepsin K (Homo sapiens, UniProt P43235); assay: Azocasein degradation assays; settings: for IC 50 relative to K A: azocasein IC50 versus K A with Z-FR↓AMC; for IC50: azocasein degradation; for remaining activity: pH 5.5, substrate azocasein 3 mg/ml, 0.1 µM cathepsin K, 30 min 37°C, pH 5.50, read-out: Residual activity; for remaining activity / Effect on azocasein degradation: compounds up to 2 mM (compound 2: 1 mM); for azocasein: fraction of residual enzyme activity: value of 1 equals the activity of unmodified enzyme, activity modification matrix
T1 construct: made in house
T1 sequence (P43235 115-329): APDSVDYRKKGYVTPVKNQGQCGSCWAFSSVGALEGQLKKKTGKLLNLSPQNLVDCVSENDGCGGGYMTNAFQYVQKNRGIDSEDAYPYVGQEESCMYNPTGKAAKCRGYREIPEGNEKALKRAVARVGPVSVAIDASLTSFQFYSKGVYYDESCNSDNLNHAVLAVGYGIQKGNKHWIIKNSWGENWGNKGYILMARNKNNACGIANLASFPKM
Source text: Figure 4 Effect of modifiers on the degradation of macromolecular substrates. (A) Effect of increasing concentrations of compounds 1 and 2 on the degradation of calf skin collagen. Molecular mass standards are given in kDa and positions of α, β and γ chains of intact collagen are marked by arrows. (B) Effect of modifiers on azocasein degradation. (C) Effect of glycosaminoglycans and clusterin on azocasein degradation. Two different concentrations of each glycosaminoglycan were used in the experiments (10 µg/ml and 200 µg/ml). Error bars in panels B and C represent the SEM of three experiments. All experiments were performed in 100 mM sodium acetate buffer pH 5.50 containing 1 mM EDTA and 5 mM DTT, as described in detail in the Materials and Methods section. Abbreviations: CPD – compound, CS – chondroitin sulfate, DS – dermatan sulfate, HP – heparin.
Azocasein (Sigma-Aldrich, USA) was dissolved in 100 mM sodium acetate buffer pH 5.50 containing 1 mM EDTA and 5 mM DTT at a concentration of 3 mg/ml. Samples were incubated with 0.1 µM cathepsin K for 30 min at 37°C in the presence of each compound. […] Reactions were stopped by addition of trichloroacetic acid (final concentration 5% v/v), centrifuged, clear supernatants mixed with 0.5 M NaOH and the concentrations of solubilized peptides determined by measuring the absorbance at 440 nm. All experiments were performed in triplicates and appropriate blanks were run to take into account the absorption of azocasein and compounds alone. IC 50 values were determined as described previously.

[2] = biological target: T1, Recombinant human cathepsin K; assay: Kinetic measurements, hydrolysis of the fluorogenic substrate Z-FR↓AMC (general modifier mechanism); set-up: key to α (coefficient, effect of modifier on the affinity for the substrate) / β (coefficient, effect of modifier on the catalytic rate): dimensionless coefficients multiplying KS (α) and kcat (β); settings: for Z-FRAMC: geometric mean of residual activities (vA): at 0.1×Km and 10×Km substrate, modifier 10×KA, calculated with Equation 1 from α and β of Table 3, unmodified enzyme = 1.00; for β (coefficient, effect of modifier on the catalytic rate) / Kd / Kinetic mechanism of modification / α (coefficient, effect of modifier on the affinity for the substrate): substrate Z-FR↓AMC; for β (coefficient, effect of modifier on the catalytic rate) / Kd / α (coefficient, effect of modifier on the affinity for the substrate): pH 5.50, 25°C, 0.5 nM enzyme; for Kd: read-out: K A (equilibrium dissociation constant of the EA complex); for Kinetic mechanism of modification: from combinations of α and β
Procedure: All modifiers were tested for their effect on the hydrolysis of the low molecular mass synthetic substrate Z-FR↓AMC. Since all progress curves were linear from the beginning of the reaction, initial velocities were calculated from the slopes by linear regression. […] The basic mechanism considered for the analysis of the interactions was the general modifier mechanism shown in Figure 2, in which the effect of modifier is determined by the values of the coefficients α and β that multiply the kinetic parameters K S, K A (α) and k cat (β). In the thermodynamic box embodied in Figure 2, the reciprocal of the coefficient α represents the allosteric coupling constant that characterizes energy linkage between the modifier and the substrate, while a […] represents the effect exerted by the modifier on catalysis. The specific velocity plot was used for the primary screening of the kinetic behavior of the modifiers (Equation 2), as it allows an immediate judgment of the type of interaction and to gather preliminary estimates of the coefficients α and β, as well as of the dissociation constant of the modifier. Refinement was then performed by fitting the rate Equation 1 to data.
Figure 3 Kinetic mechanisms of the identified modifiers. All compounds were characterized by a combination of specific velocity plots (upper panels) and titration curves recorded at fixed substrate concentrations (lower panels). All experiments were performed at 25±1°C in 100 mM sodium acetate buffer pH 5.50 containing 1 mM EDTA and 2.5 mM DTT using the fluorogenic substrate Z-FR↓AMC and at a final enzyme concentration of 0.5 nM.
All kinetic measurements were performed in 100 mM sodium acetate buffer pH 5.50 containing 1 mM EDTA and 2.5 mM dithiothreitol (DTT) in single-use acrylic cuvettes (1×1 cm) thermostatted at 25±1°C with magnetic stirring. The hydrolysis of Z-FR↓AMC was followed fluorometrically at λex 383 nm and λem 455 nm. All tested modifiers were analyzed spectroscopically to determine their absorption properties under the conditions used in the assays. When necessary, appropriate corrections were made to the calculated reaction rates to take into account the inner filter effect.
The effects of the modifiers on enzymatic activity were analyzed with the general modifier mechanism which describes the interaction between enzyme (E), substrate (S) and modifier (A), as shown in Figure 2. Assuming that binding of A to E and ES is at quasi-equilibrium and that steady-state conditions are established in the fluxes around ES and ESA (i.e. the catalytic steps), the reaction rate for the mechanism in Figure 2 is defined by Equation 1: [drawing 2] (1) where v 0 is the reaction rate in the absence of modifier, K A is the equilibrium dissociation constant of the EA complex, α and β are dimensionless coefficients and σ = [S]/K m, approximated to [S]/K s. To determine the mechanism of interaction, plot the kinetic data and calculate preliminary values of the interaction parameters, the specific velocity plot was used. For this purpose, Equation 1 is rewritten as:
The plot of v 0/v A versus σ/(1+σ) produces straight lines with intersection points at v 0/v A = 1, regardless of the interaction mechanism. The parameters α, β and K A are determined by replotting the extrapolated values of the straight lines at σ/(1+σ) = 0 (a) and σ/(1+σ) = 1 (b) versus 1/[A] in the form: [drawing 4] (3) [drawing 5] (4)

[3] = biological target: T1, Recombinant human cathepsin K; assay: Thermal stability of cathepsin K at pH 7.4 in the presence of modifiers; settings: for stability: ln(sf), sf = ratio of half-lives in the presence and absence of modifier: 37 °C and pH 7.4
Procedure: Cathepsin K was incubated at 37°C in 50 mM Hepes buffer pH 7.40 containing 1 mM EDTA and 5 mM DTT in the presence or absence of each modifier. The final enzyme concentration was 0.2 µM and final compounds concentrations were 2 mM, except compound 2, which was used at a concentration of 1 mM. All experiments were performed in Eppendorf Protein LoBind Tubes to minimize the adsorption of proteins on tube walls. Aliquots were withdrawn from the reaction mixtures at regular time intervals and their residual activity measured using the substrate Z-FR↓AMC (5 µM final concentration). Inactivation curves had exponential profiles that were fitted with the mathematical model for one-phase exponential decay to determine the half-life of the enzyme in each reaction mixture.

[4] = biological target: T1, Recombinant human cathepsin K; assay: Collagenolytic assays (calf skin collagen, SDS-PAGE); set-up: key to collagen: qualitative value: qualitative values of 1 and 0 were used to signify inhibition and lack thereof, respectively; qualitative values of 1 and 0 were used to signify inhibition and lack thereof, respectively; a value of -1 was used to describe the concentration-dependent roles of glycosaminoglycans; settings: for collagen: qualitative value: activity modification matrix
Procedure: The use of synthetic substrates is practical for the determination of the mechanisms of modification. […] Therefore, all modifiers were also tested with two macromolecular substrates, calf skin collagen and azocasein. The collagenolytic activity was tested quantitatively by following the fragmentation of the characteristic type I collagen pattern into smaller products on SDS-PAGE after incubation of the samples with cathepsin K in the presence and absence of modifiers.
Soluble calf skin collagen (Worthington Biochemical Corporation, USA) was diluted in 100 mM sodium acetate buffer pH 5.50 containing 1 mM EDTA and 5 mM DTT to a final concentration of 0.5 mg/ml. Experiments were started by addition of cathepsin K (final enzyme concentration 0.6 µM) to the reaction mixture containing collagen and increasing concentrations of modifier. All assays were performed at 28°C with shaking on an Eppendorf Thermomixer Comfort. Samples were incubated for 2 hours and the reactions then blocked by addition of E-64 to a final concentration of 1 µM. 10 µg of digested collagen were analyzed by SDS-PAGE on 8% polyacrylamide gels and protein bands visualized by Coomassie Brilliant Blue R-250 staining.

[5] = substrate calf skin collagen 0.5 mg/ml, 0.6 µM cathepsin K, 2 hours 28°C, pH 5.50, estimated

Row | Compound | IC 50 relative to K A [1] | IC50 [1] | remaining activity [1] | azocasein: fraction of residual enzyme activity [1] | Z-FRAMC: geometric mean of residual activities (vA) [2] | β (coefficient, effect of modifier on the catalytic rate) [2] | Kd [2] | stability: ln(sf), sf = ratio of half-lives in the presence and absence of modifier [3] | collagen: qualitative value [4] | Effect on azocasein degradation [1] | Kinetic mechanism of modification [2] | α (coefficient, effect of modifier on the affinity for the substrate) [2] | IC50 [4, 5] | other results
1 | Nc1cc(C(=O)O)ccc1NCC1CCCO1 (stereo not drawn) [Compound 1, 3-Amino-4-[(tetrahydro-2-furanylmethyl)amino] benzoic acid] | about 4 fold | 730 ± 190 µM | 74 ± 9% | 0.74 | 0.37 | 0.55±0.25 | 190 ± 20 µM | 0.74 | 1 |  |  |  |  | Increase of stability (half-life) of cathepsin K ([3]; pH 7.4, 37°C, versus enzyme only): about 2 fold; Effect on degradation of calf skin collagen ([4]; SDS-PAGE, increasing concentrations of modifier): concentration-dependent inhibitory effect; IC50 ([4]; degradation of calf skin collagen, read-out: IC 50 (estimated)): ~1000 µM; IC50 ([4]; substrate calf skin collagen 0.5 mg/ml, 0.6 µM cathepsin K, 2 hours 28°C, pH 5.50, estimated, read-out: IC 50): 1000 µM
2 | O=C(O)c1ccccc1C(=O)Nc1cccc([N+](=O)[O-])c1 [Compound 7, 2-[(3-Nitrophenyl)carbamoyl]benzoic acid] |  |  | 104 ± 5% | 1.01 | 0.48 | 0.19±0.03 | 290 ± 20 µM | 0.47 | 0 | ineffective | hyperbolic mixed inhibitors with uncompetitive character | 0.19±0.03 | n.i. | α (coefficient, effect of modifier on the affinity for the substrate) ([2]; listed as compound 7): < 1; β (coefficient, effect of modifier on the catalytic rate) ([2]; listed as compound 7): < 1
3 | NCC1CCN(CCc2ccccc2)CC1 [Compound 6, 1-[1-(2-Phenylethyl)-4-piperidinyl]-methanamine] | about 4 fold | 1100 ± 240 µM | 77 ± 8% | 0.77 | 0.65 | 1 | 270 ± 50 µM | 0.18 | 0 |  | hyperbolic competitive inhibitor | 3.0±0.2 | n.i. | 
4 | O=C(Nc1ccc(C(=O)O)c(O)c1)c1ccccc1 [Compound 3, N-Benzoyl-p-aminosalicylic acid] |  |  | 86 ± 4% |  | 0.42 |  | 110 ± 20 µM | 0.26 | 0 |  |  | 1.7±0.5 | n.i. | 
5 | O=C(O)C(Cc1ccccc1-c1ccccc1)C(=O)O [Compound 4, (2-Biphenylylmethyl) malonic acid] |  |  | 90 ± 3% |  | 0.70 | 1.5±0.3 | 100 ± 40 µM | 0.41 | 0 |  | hyperbolic mixed modifiers with a dual behavior as inhibitors or activators depending on substrate concentration | 5.6±1.2 | n.i. | α (coefficient, effect of modifier on the affinity for the substrate) ([2]; listed as compound 4): > 1; β (coefficient, effect of modifier on the catalytic rate) ([2]; listed as compound 4): > 1
6 | COC(=O)CNC1CC(=O)N(c2ccc(OC)cc2)C1=O (stereo not drawn) [Compound 8, Methyl N-[1-(4-methoxyphenyl)-2,5-dioxopyrrolidin-3-yl]glycinate] |  |  | 101 ± 3% | 1.04 | 0.60 | 0.31±0.06 | 1100 ± 200 µM | 0.02 | 0 | ineffective | hyperbolic mixed inhibitors with uncompetitive character | 0.31±0.06 | n.i. | α (coefficient, effect of modifier on the affinity for the substrate) ([2]; listed as compound 8): < 1; β (coefficient, effect of modifier on the catalytic rate) ([2]; listed as compound 8): < 1
